The target of this assay is T1, HDAC6 enzyme (Homo sapiens, UniProt Q9UBN7).
T1 construct: prepared by transducing full length HDAC1 and HDAC6 genes into Sf-9 insect cells; GST; purchased SignalChem; host or cells: Sf-9 insect cells
T1 sequence (Q9UBN7 1-1215): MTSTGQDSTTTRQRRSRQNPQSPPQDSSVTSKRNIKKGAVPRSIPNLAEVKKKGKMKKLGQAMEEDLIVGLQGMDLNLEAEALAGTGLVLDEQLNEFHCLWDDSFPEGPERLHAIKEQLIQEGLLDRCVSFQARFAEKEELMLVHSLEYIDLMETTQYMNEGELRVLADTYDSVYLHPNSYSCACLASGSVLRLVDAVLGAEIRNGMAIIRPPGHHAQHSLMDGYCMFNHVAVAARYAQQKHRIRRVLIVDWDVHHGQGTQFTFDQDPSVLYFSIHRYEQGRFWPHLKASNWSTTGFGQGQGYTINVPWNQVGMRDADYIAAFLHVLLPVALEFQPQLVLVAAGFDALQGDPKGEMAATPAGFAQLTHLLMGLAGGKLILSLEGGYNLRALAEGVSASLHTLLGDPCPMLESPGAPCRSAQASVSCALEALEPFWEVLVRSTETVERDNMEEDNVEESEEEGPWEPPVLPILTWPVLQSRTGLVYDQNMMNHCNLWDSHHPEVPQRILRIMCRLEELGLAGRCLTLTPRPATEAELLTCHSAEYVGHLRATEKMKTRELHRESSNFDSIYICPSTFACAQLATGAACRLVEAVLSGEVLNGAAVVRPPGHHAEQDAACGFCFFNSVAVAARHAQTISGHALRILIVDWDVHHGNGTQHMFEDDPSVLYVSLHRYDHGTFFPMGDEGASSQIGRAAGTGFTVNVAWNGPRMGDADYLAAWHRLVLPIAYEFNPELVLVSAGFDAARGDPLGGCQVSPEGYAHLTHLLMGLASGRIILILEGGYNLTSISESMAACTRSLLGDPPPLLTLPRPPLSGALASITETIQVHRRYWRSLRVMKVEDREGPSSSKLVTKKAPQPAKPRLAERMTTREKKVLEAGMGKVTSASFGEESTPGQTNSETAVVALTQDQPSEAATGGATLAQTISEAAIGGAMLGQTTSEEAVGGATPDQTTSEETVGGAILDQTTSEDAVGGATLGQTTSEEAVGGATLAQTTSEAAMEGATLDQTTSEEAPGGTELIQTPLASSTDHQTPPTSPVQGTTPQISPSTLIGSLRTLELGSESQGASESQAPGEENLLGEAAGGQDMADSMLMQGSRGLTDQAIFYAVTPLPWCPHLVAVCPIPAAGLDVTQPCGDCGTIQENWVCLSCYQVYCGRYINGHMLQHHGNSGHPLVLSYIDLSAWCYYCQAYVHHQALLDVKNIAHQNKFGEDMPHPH
Briefly: HDAC6 enzyme inhibitory assay (HDAC-Glo I/II Assay kit). In kind it is biochemical. The settings on record: 1 μM test compound; read-out: HDAC6 inhibitory rate (%) (1 μM). As for the experimental part:
HDAC1 enzyme and HDAC6 enzyme each prepared by transducing full length HDAC1 and HDAC6 genes into Sf-9 insect cells and purifying by GST affinity column were purchased from SignalChem. Using these enzymes, HDAC1 and/or HDAC6 enzyme inhibitory activities of the compound of the present invention were evaluated. Enzymes were used after preserved at −70° C. HDAC1 or HDAC6 enzyme inhibitory activity of the compound of the present invention was measured using HDAC-Glo™ I/II Assay kit (Promega) according to the following experimental method. The test compound diluted with assay buffer (24 mM Tris-HCl (pH 7.5), 1 mM MgCl2, 0.35 mM KCl, 135 mM NaCl, 0.6 mM Glutathione, 0.01% Tween-20) was added to a 384-well plate by each 2 μL. Then, HDAC1 or HDAC6 enzyme solution diluted with assay buffer was added thereto by each 4 μL, and the plate was incubated at room temperature for 60 min. After incubated, HDAC substrate-Developer solution prepared according to Promega protocol attached to the assay kit was added to the 384-well plate by each 2 μL, and the enzyme reaction was started. After reacting at room temperature for 20 min, luminescence level was measured using plate reader Envision (PerkinElmer). The inhibitory activity of each compound was calculated as a relative activity value when luminescence level in wells without enzyme is considered as 100% inhibition.

Turning to `COc1cccc(C(=O)N2CCOCC2CNC(=O)c2ccc(-c3noc(C(F)(F)F)n3)cc2)c1` (stereo in doubt) [Example 114, N-(((3R)-4-(3-methoxybenzoyl)morpholin-3-yl)methyl)-4-(5-(trifluoromethyl)-1,2,4-oxadiazol-3-yl)benzamide], the inhibition at 1 µM turned out to be 92%.

For the compound `N#Cc1ccccc1C(=O)N1CCOCC1CNC(=O)c1ccc(-c2noc(C(F)(F)F)n2)cc1` (stereo in doubt) [Example 115, N-(((3R)-4-(2-cyanobenzoyl)morpholin-3-yl)methyl)-4-(5-(trifluoromethyl)-1,2,4-oxadiazol-3-yl)benzamide], the inhibition at 1 µM was found to be 94%. Take `N#Cc1cccc(C(=O)N2CCOCC2CNC(=O)c2ccc(-c3noc(C(F)(F)F)n3)cc2)c1` (stereo in doubt) [Example 116, N-(((3R)-4-(3-cyanobenzoyl)morpholin-3-yl)methyl)-4-(5-(trifluoromethyl)-1,2,4-oxadiazol-3-yl)benzamide]: the inhibition at 1 µM is 91%.

Turning to `N#Cc1ccc(C(=O)N2CCOCC2CNC(=O)c2ccc(-c3noc(C(F)(F)F)n3)cc2)cc1` (stereo in doubt) [Example 117, N-(((3R)-4-(4-cyanobenzoyl)morpholin-3-yl)methyl)-4-(5-(trifluoromethyl)-1,2,4-oxadiazol-3-yl)benzamide], the inhibition at 1 µM came to 93%. As for `O=C(NCC1COCCN1C(=O)c1ccncc1)c1ccc(-c2noc(C(F)(F)F)n2)cc1` (stereo in doubt) [Example 120, N-(((3R)-4-isonicotinoylmorpholin-3-yl)methyl)-4-(5-(trifluoromethyl)-1,2,4-oxadiazol-3-yl)benzamide], the inhibition at 1 µM was found to be 96%. Turning to `Cc1cc(C(=O)N2CCOCC2CNC(=O)c2ccc(-c3noc(C(F)(F)F)n3)cc2)ccn1` (stereo in doubt) [Example 121, N-(((3R)-4-(2-methylisonicotinoyl)morpholin-3-yl)methyl)-4-(5-(trifluoromethyl)-1,2,4-oxadiazol-3-yl)benzamide], the inhibition at 1 µM came out at 87%. Regarding `O=C(NCC1COCCN1C(=O)Nc1ccccc1)c1ccc(-c2noc(C(F)(F)F)n2)cc1` (stereo not shown) [Example 2, N-phenyl-3-(((4-(5-(trifluoromethyl)-1,2,4-oxadiazol-3-yl)benzoyl)amino)methyl)morpholine-4-carboxamide], the inhibition at 1 µM was 86%. For the compound `Cn1ccnc1C(=O)N1CCOCC1CNC(=O)c1ccc(-c2noc(C(F)(F)F)n2)cc1` (stereo not shown) [Example 16, N-((4-((1-methyl-1H-imidazol-2-yl)carbonyl)morpholin-3-yl)methyl)-4-(5-(trifluoromethyl)-1,2,4-oxadiazol-3-yl)benzamide], the inhibition at 1 µM was 93%.

On to `Cn1cnc(C(=O)N2CCOCC2CNC(=O)c2ccc(-c3noc(C(F)(F)F)n3)cc2)c1` (stereo not shown) [Example 17, N-((4-((1-methyl-1H-imidazol-4-yl)carbonyl)morpholin-3-yl)methyl)-4-(5-(trifluoromethyl)-1,2,4-oxadiazol-3-yl)benzamide], for which the inhibition at 1 µM was found to be 61%. As for `Cc1cc(C(=O)N2CCOC[C@@H]2CNC(=O)c2ccc(-c3noc(C(F)(F)F)n3)cc2)cc(O)n1` [Example 50, N-(((3S)-4-(2-hydroxy-6-methylisonicotinoyl)morpholin-3-yl)methyl)-4-(5-(trifluoromethyl)-1,2,4-oxadiazol-3-yl)benzamide], the inhibition at 1 µM came to 95%. For the compound `O=C(NC[C@H]1COCCN1C(=O)c1cc2ccccc2o1)c1ccc(-c2noc(C(F)(F)F)n2)cc1` [Example 53, N-(((3S)-4-(1-benzofuran-2-ylcarbonyl)morpholin-3-yl)methyl)-4-(5-(trifluoromethyl)-1,2,4-oxadiazol-3-yl)benzamide], the inhibition at 1 µM was 95%.

With `O=C(NC[C@H]1COCCN1C(=O)c1cc2ncccn2n1)c1ccc(-c2noc(C(F)(F)F)n2)cc1` [Example 54, N-(((3S)-4-(pyrazolo[1,5-a]pyrimidin-2-ylcarbonyl)morpholin-3-yl)methyl)-4-(5-(trifluoromethyl)-1,2,4-oxadiazol-3-yl)benzamide], the inhibition at 1 µM came to 95%.

For `O=C(NC[C@H]1COCCN1C(=O)C(c1ccccc1)c1ccccc1)c1ccc(-c2noc(C(F)(F)F)n2)cc1` [Example 57, N-(((3S)-4-(diphenylacetyl)morpholin-3-yl)methyl)-4-(5-(trifluoromethyl)-1,2,4-oxadiazol-3-yl)benzamide], the inhibition at 1 µM turned out to be 56%. For `O=C(NC[C@H]1COCCN1C(=O)COc1ccccc1)c1ccc(-c2noc(C(F)(F)F)n2)cc1` [Example 58, N-(((3S)-4-(phenoxyacetyl)morpholin-3-yl)methyl)-4-(5-(trifluoromethyl)-1,2,4-oxadiazol-3-yl)benzamide], the inhibition at 1 µM worked out at 93%.

For the compound `Cc1cc(C(=O)N2CCOC[C@@H]2CNC(=O)c2ccc(-c3noc(C(F)(F)F)n3)cc2)on1` [Example 62, N-(((3S)-4-((3-methyl-1,2-oxazol-5-yl)carbonyl)morpholin-3-yl)methyl)-4-(5-(trifluoromethyl)-1,2,4-oxadiazol-3-yl)benzamide], the inhibition at 1 µM was determined as 93%.

Regarding `Cn1ccc(C(=O)N2CCOC[C@@H]2CNC(=O)c2ccc(-c3noc(C(F)(F)F)n3)cc2)n1` [Example 65, N-(((3S)-4-((1-methyl-1H-pyrazol-3-yl)carbonyl)morpholin-3-yl)methyl)-4-(5-(trifluoromethyl)-1,2,4-oxadiazol-3-yl)benzamide], the inhibition at 1 µM came out at 75%.

As to `Cn1cc(C(=O)N2CCOC[C@@H]2CNC(=O)c2ccc(-c3noc(C(F)(F)F)n3)cc2)cn1` [Example 66, N-(((3S)-4-((1-methyl-1H-pyrazol-4-yl)carbonyl)morpholin-3-yl)methyl)-4-(5-(trifluoromethyl)-1,2,4-oxadiazol-3-yl)benzamide], the inhibition at 1 µM was 88%. Then `O=C(NC[C@H]1COCCN1C(=O)c1cc[nH]n1)c1ccc(-c2noc(C(F)(F)F)n2)cc1` [Example 71, N-(((3S)-4-(1H-pyrazol-3-ylcarbonyl)morpholin-3-yl)methyl)-4-(5-(trifluoromethyl)-1,2,4-oxadiazol-3-yl)benzamide], with 89%.

`Cc1ccc(C(=O)N2CCOC[C@@H]2CNC(=O)c2ccc(-c3noc(C(F)(F)F)n3)cc2)s1` [Example 72, N-(((3S)-4-((5-methyl-2-thienyl)carbonyl)morpholin-3-yl)methyl)-4-(5-(trifluoromethyl)-1,2,4-oxadiazol-3-yl)benzamide]: the inhibition at 1 µM turned out to be 89%. Consider `Cc1csc(C(=O)N2CCOC[C@@H]2CNC(=O)c2ccc(-c3noc(C(F)(F)F)n3)cc2)c1` [Example 73, N-(((3S)-4-((4-methyl-2-thienyl)carbonyl)morpholin-3-yl)methyl)-4-(5-(trifluoromethyl)-1,2,4-oxadiazol-3-yl)benzamide], for which the inhibition at 1 µM was 98%. Then `O=C(NC[C@H]1COCCN1C(=O)C1CC1)c1ccc(-c2noc(C(F)(F)F)n2)cc1` [Example 75, N-(((3S)-4-(cyclopropylcarbonyl)morpholin-3-yl)methyl)-4-(5-(trifluoromethyl)-1,2,4-oxadiazol-3-yl)benzamide], with 92%; and `O=C(NC[C@H]1COCCN1C(=O)CC1CC1)c1ccc(-c2noc(C(F)(F)F)n2)cc1` [Example 76, N-(((3S)-4-(cyclopropylacetyl)morpholin-3-yl)methyl)-4-(5-(trifluoromethyl)-1,2,4-oxadiazol-3-yl)benzamide], with 90%.

These data come from patent US10081624B2, “Heterocyclic compound” (Takeda Pharmaceutical Company Limited, priority 2014, dated 2018).
